The numbers were not newly measured in patent US20140243296A1, “Organic Compounds” (Jagotec AG, priority 2011, published 2014), which cites them from elsewhere.

SMILES strings stand for the structures.

Data set [1] addresses CYP 3A4 isoform (Homo sapiens, UniProt P08684). The following applies: qualitative, prior-art knowledge.
The conditions of data set [2]: qualitative.
Data set [3] deals with P-glycoprotein (Pgp) (Homo sapiens, UniProt P08183). The following applies: qualitative, prior-art knowledge.
Sequence of P-glycoprotein (Pgp) (P08183 whole entry): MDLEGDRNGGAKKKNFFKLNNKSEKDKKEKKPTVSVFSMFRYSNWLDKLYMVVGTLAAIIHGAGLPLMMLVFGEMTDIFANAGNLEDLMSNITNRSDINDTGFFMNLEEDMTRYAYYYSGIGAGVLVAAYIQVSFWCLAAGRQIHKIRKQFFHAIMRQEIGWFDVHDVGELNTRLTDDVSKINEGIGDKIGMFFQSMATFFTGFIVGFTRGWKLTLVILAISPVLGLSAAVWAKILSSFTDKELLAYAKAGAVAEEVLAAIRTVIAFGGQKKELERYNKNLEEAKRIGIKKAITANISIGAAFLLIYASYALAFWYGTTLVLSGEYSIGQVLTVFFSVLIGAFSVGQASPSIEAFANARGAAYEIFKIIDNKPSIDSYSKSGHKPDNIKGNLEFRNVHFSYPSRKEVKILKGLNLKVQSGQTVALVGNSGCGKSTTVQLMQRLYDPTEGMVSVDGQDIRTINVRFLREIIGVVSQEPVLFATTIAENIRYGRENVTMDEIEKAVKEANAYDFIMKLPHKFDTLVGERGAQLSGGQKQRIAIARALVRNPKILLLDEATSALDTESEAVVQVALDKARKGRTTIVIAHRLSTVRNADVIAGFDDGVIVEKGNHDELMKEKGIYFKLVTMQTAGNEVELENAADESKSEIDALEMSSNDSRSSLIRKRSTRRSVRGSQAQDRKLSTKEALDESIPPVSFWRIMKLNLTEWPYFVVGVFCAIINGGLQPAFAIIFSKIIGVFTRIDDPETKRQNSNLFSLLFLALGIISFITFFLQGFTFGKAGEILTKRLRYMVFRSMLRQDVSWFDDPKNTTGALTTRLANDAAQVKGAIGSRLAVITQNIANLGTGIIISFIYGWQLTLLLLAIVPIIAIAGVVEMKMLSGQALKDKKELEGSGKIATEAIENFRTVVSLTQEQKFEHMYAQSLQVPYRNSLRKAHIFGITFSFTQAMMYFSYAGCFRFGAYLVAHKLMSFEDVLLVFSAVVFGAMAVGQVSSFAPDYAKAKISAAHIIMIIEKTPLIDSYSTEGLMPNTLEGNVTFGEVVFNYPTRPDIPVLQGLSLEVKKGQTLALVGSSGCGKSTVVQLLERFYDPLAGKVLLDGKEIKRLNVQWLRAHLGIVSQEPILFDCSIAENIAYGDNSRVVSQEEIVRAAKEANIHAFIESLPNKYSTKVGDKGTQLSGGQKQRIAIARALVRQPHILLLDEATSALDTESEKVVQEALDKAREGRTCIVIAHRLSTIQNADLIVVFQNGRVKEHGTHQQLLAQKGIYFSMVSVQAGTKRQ

Sequence of CYP 3A4 isoform (P08684 whole entry, canonical isoform): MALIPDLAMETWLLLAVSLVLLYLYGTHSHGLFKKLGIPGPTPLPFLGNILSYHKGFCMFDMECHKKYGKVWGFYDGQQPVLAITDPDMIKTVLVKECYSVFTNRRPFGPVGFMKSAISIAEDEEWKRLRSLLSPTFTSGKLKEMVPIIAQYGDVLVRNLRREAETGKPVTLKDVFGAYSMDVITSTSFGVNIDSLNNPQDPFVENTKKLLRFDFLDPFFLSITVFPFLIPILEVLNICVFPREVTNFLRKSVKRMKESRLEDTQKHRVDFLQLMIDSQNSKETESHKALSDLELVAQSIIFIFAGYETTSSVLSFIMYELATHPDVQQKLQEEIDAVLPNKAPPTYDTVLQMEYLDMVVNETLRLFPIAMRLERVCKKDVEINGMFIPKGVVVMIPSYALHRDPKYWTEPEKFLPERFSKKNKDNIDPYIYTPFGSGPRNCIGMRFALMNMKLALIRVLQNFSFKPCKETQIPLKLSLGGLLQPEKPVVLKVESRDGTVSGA

On to `CC(C)CN(C[C@@H](O)[C@H](Cc1ccccc1)NC(=O)O[C@H]1CCOC1)S(=O)(=O)c1ccc(N)cc1` [amprenavir], for which, in data set [1], the “inhibition of / affinity towards CYP, particularly CYP 3A4 isoform” value (“inhibition of / affinity towards CYP” below) is “weak inhibitors”.

On to `CC(C)CN(C[C@@H](O)[C@H](Cc1ccccc1)NC(=O)O[C@H]1CO[C@H]2OCC[C@H]21)S(=O)(=O)c1ccc(N)cc1` [Darunavir, darunavir], for which the solubility result in data set [2] was “poorly soluble”.

In the case of `Cc1c(O)cccc1C(=O)N[C@@H](CSc1ccccc1)[C@H](O)CN1C[C@H]2CCCC[C@H]2C[C@H]1C(=O)NC(C)(C)C` [nelfinavir], the “inhibition of / affinity towards CYP” value in data set [1] is “modest inhibition”.

With `CC(C)(C)NC(=O)[C@@H]1C[C@@H]2CCCC[C@@H]2CN1C[C@@H](O)[C@H](Cc1ccccc1)NC(=O)[C@H](CC(N)=O)NC(=O)c1ccc2ccccc2n1` [saquinavir], in data set [1], the “inhibition of / affinity towards CYP” value is “weak inhibitors”.

For `CC(C)(C)NC(=O)[C@@H]1CN(Cc2cccnc2)CCN1C[C@@H](O)C[C@@H](Cc1ccccc1)C(=O)N[C@H]1c2ccccc2C[C@H]1O` [indinavir], the “inhibitory effect on / affinity for Pgp” value in data set [3] is on record as “substantially no inhibitory effect”.
